According to patent publication US5250683A, “Certain substituted taxanes and pharmaceutical compositions containing them” (Florida State University, priority 1992, dated 1993):

These compounds were tested on tubulin (assay: Tubulin binding assay (Tubulin Assay), method of Parness et al.). Details: compared to taxol and taxotere.

Structure (SMILES) | Tubulin Assay Init. Peak | Tubulin Assay Rel. Rate
CC(=O)O[C@H]1C(=O)[C@@]2(C)[C@H]([C@H](OC(=O)c3ccccc3)[C@]3(O)C[C@H](OC(=O)[C@H](O)[C@@H](NC(=O)c4ccccc4)c4cccc5ccccc45)C(C)=C1C3(C)C)[C@]1(OC(C)=O)CO[C@@H]1C[C@@H]2O [Example 1, 3'-desphenyl-3'-(1-naphthyl) taxol] | 0 | 0
CC(=O)O[C@H]1C(=O)[C@@]2(C)[C@H]([C@H](OC(=O)c3ccccc3)[C@]3(O)C[C@H](OC(=O)[C@H](O)[C@@H](NC(=O)c4ccccc4)c4ccc5ccccc5c4)C(C)=C1C3(C)C)[C@]1(OC(C)=O)CO[C@@H]1C[C@@H]2O [Example 2, 3'-desphenyl-3'-(2-naphthyl) taxol] | 0 | 0
COc1ccc([C@H](NC(=O)c2ccccc2)[C@@H](O)C(=O)O[C@H]2C[C@@]3(O)[C@@H](OC(=O)c4ccccc4)[C@@H]4[C@]5(OC(C)=O)CO[C@@H]5C[C@H](O)[C@@]4(C)C(=O)[C@H](OC(C)=O)C(=C2C)C3(C)C)cc1 [Example 3, 3'-desphenyl-3'-(4-methoxyphenyl) taxol] | 59 | 87
CC(=O)O[C@H]1C(=O)[C@@]2(C)[C@H]([C@H](OC(=O)c3ccccc3)[C@]3(O)C[C@H](OC(=O)[C@H](O)[C@@H](NC(=O)c4ccccc4)c4ccc(Cl)cc4)C(C)=C1C3(C)C)[C@]1(OC(C)=O)CO[C@@H]1C[C@@H]2O [Example 4, 3'-desphenyl-3'-(4-chlorophenyl) taxol] | 94 | 97
CC(=O)O[C@H]1C(=O)[C@@]2(C)[C@H]([C@H](OC(=O)c3ccccc3)[C@]3(O)C[C@H](OC(=O)[C@H](O)[C@@H](NC(=O)c4ccccc4)c4ccc(Br)cc4)C(C)=C1C3(C)C)[C@]1(OC(C)=O)CO[C@@H]1C[C@@H]2O [Example 5, 3'-desphenyl-3'-(4-bromophenyl) taxol] | 5 | 74
CC(=O)O[C@H]1C(=O)[C@@]2(C)[C@H]([C@H](OC(=O)c3ccccc3)[C@]3(O)C[C@H](OC(=O)[C@H](O)[C@@H](NC(=O)c4ccccc4)c4ccc5c(c4)OCO5)C(C)=C1C3(C)C)[C@]1(OC(C)=O)CO[C@@H]1C[C@@H]2O [Example 6, 3'-desphenyl-3'-(3,4-methylenedioxyphenyl) taxol] | 53 | 85
COc1ccc([C@H](NC(=O)c2ccccc2)[C@@H](O)C(=O)O[C@H]2C[C@@]3(O)[C@@H](OC(=O)c4ccccc4)[C@@H]4[C@]5(OC(C)=O)CO[C@@H]5C[C@H](O)[C@@]4(C)C(=O)[C@H](OC(C)=O)C(=C2C)C3(C)C)cc1OC [Example 7, 3'-desphenyl-3'-(3,4-dimethoxyphenyl) taxol] | 11 | 26
CC(=O)O[C@H]1C(=O)[C@@]2(C)[C@H]([C@H](OC(=O)c3ccccc3)[C@]3(O)C[C@H](OC(=O)[C@H](O)[C@@H](NC(=O)c4ccccc4)c4ccc([N+](=O)[O-])cc4)C(C)=C1C3(C)C)[C@]1(OC(C)=O)CO[C@@H]1C[C@@H]2O [Example 8, 3'-desphenyl-3'-(4-nitrophenyl) taxol] | 114 | 105
CC(=O)O[C@H]1C(=O)[C@@]2(C)[C@H]([C@H](OC(=O)c3ccccc3)[C@]3(O)C[C@H](OC(=O)[C@H](O)[C@@H](NC(=O)c4ccccc4)c4ccc(F)cc4)C(C)=C1C3(C)C)[C@]1(OC(C)=O)CO[C@@H]1C[C@@H]2O [Example 9, 3'-desphenyl-3'-(4-fluorophenyl) taxol] | 100 | –
